From PMC12209991 (Clinical Pharmacology in Drug Development, 2025)
Entries after “also recorded” stand apart in the source; their conditions may differ. Read-outs that look alike come from different tables or passages of the source.

What was measured:
[1] = Multiple ascending dose (MAD) pharmacokinetics in healthy volunteers, BID for 14 days; type: in vivo, human; conditions: human, plasma, oral; for Tmax: read-out: Tmax, median [min-max]
Description: (§1) Analytes were separated by HPLC on a Waters Atlantis T3 analytical column using a gradient mobile phase (mobile phase A: 10% acetonitrile, 90% water, 10 mM ammonium acetate, 0.3% formic acid; mobile phase B: 90% acetonitrile, 10% water, 10 mM ammonium acetate, 0.3% formic acid) run at 0.4 mL/min with initial mobile phase B concentration of 30%.

[2] = Food effect (high-fat breakfast) on RBN-3143 pharmacokinetics, cross-over; type: in vivo, human; conditions: single 500 mg oral dose; for Tmax / AUC(0-inf) / AUC(0-t) / Cmax: human, plasma, po, 500 mg; for Tmax: read-out: Median Tmax
Description: as §1

[3] = Pantoprazole (PPI) effect on RBN-3143 pharmacokinetics, cross-over; type: in vivo, human; conditions: for AUC(0-inf) / AUC(0-t) / Cmax: human, plasma, po, single 500 mg oral dose
Description: as §1

[4] = molecular target: CYP3A4 (Homo sapiens, UniProt P08684); experiment: In vitro metabolism; type: in vitro ADME; conditions: unpublished data
Sequence of CYP3A4 (P08684 whole entry): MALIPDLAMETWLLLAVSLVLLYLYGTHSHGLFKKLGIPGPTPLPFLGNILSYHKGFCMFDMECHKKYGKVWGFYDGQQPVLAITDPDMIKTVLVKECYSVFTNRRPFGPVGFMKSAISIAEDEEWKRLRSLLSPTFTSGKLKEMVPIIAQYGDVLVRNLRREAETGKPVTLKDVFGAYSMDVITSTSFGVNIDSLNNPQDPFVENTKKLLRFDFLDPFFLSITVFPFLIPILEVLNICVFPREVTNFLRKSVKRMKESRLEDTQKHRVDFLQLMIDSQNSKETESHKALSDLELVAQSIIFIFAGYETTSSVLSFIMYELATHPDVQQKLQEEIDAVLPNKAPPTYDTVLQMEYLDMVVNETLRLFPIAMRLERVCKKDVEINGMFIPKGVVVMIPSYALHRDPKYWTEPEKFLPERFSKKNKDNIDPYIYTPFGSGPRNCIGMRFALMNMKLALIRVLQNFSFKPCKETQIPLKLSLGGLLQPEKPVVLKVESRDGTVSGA

Work on `CC(=O)N1CCC(COc2cc(F)c3c(=O)[nH]c(CSC4CCOCC4)nc3c2)CC1` [RBN‐3143] yielded an AUC ([1]; 300 mg, 300 mg BID, Day 14, plasma, read-out: AUC12, geometric mean (Geo CV%)) of 9550 ng·h/mL, an AUC ([1]; 300 mg, 300 mg BID, Day 14, plasma, read-out: AUC12, mean (SD)) of 9860 ng·h/mL and a Cmax ([1]; 300 mg, 300 mg BID, Day 14, plasma, read-out: Cmax, geometric mean (Geo CV%)) of 1420 ng/mL. The Cmax ([1]; 300 mg, 300 mg BID, Day 14, plasma, read-out: Cmax, mean (SD)) was 1470 ng/mL, the Tmax ([1]; 300 mg, 300 mg BID, Day 14, plasma) was 2 h and the AUC ([1]; 500 mg, 500 mg BID, Day 1, plasma, read-out: AUC12, geometric mean (Geo CV%)) was 8040 ng·h/mL. For the same compound, the AUC ([1]; 500 mg, 500 mg BID, Day 1, plasma, read-out: AUC12, mean (SD)) was 8340 ng·h/mL, the Cmax ([1]; 500 mg, 500 mg BID, Day 1, plasma, read-out: Cmax, geometric mean (Geo CV%)) was 1270 ng/mL and the Cmax ([1]; 500 mg, 500 mg BID, Day 1, plasma, read-out: Cmax, mean (SD)) was 1320 ng/mL. The Tmax ([1]; 500 mg, 500 mg BID, Day 1, plasma) was 2.52 h, the half-life ([1]; 500 mg, 500 mg BID, Day 1, plasma, read-out: t1/2, geometric mean (Geo CV%) (converted)) was 4.38 h and the half-life ([1]; 500 mg, 500 mg BID, Day 1, plasma, read-out: t1/2, mean (SD) (converted)) was 4.39 h. It also gave an AUC ([1]; 500 mg, 500 mg BID, Day 14, plasma, read-out: AUC12, geometric mean (Geo CV%)) of 12400 ng·h/mL, an AUC ([1]; 500 mg, 500 mg BID, Day 14, plasma, read-out: AUC12, mean (SD)) of 12600 ng·h/mL and a Cmax ([1]; 500 mg, 500 mg BID, Day 14, plasma, read-out: Cmax, geometric mean (Geo CV%)) of 1830 ng/mL. The Cmax ([1]; 500 mg, 500 mg BID, Day 14, plasma, read-out: Cmax, mean (SD)) was 1880 ng/mL, the Tmax ([1]; 500 mg, 500 mg BID, Day 14, plasma) was 1.5 h and the Tmax ([2]; after a high-fat meal) was 4 h. For the same compound, the Tmax ([2]; fasted state) was 2 h, the AUC(0-inf) ([2]; fasted, N=13, linear mixed-effects model, read-out: AUCinf, GLSM) was 13300 ng·h/mL and the AUC(0-t) ([2]; fasted, N=13, linear mixed-effects model, read-out: AUClast, GLSM) was 12900 ng·h/mL. The Cmax ([2]; fasted, N=13, linear mixed-effects model, read-out: Cmax, GLSM) was 1550 ng/mL, the AUC(0-inf) ([2]; fasted, N=13, read-out: AUCinf, geometric mean (Geo CV%)) was 13300 ng·h/mL and the AUC(0-inf) ([2]; fasted, N=13, read-out: AUCinf, mean (SD)) was 13800 ng·h/mL. The AUC(0-t) ([2]; fasted, N=13, read-out: AUClast, geometric mean (Geo CV%)) was 12800 ng·h/mL, the AUC(0-t) ([2]; fasted, N=13, read-out: AUClast, mean (SD)) was 13300 ng·h/mL and the Cmax ([2]; fasted, N=13, read-out: Cmax, geometric mean (Geo CV%)) was 1530 ng/mL. The Cmax ([2]; fasted, N=13, read-out: Cmax, mean (SD)) was 1600 ng/mL, the AUC(0-inf) ([2]; fed (high-fat breakfast), N=13, linear mixed-effects model, read-out: AUCinf, GLSM) was 18900 ng·h/mL and the AUC(0-t) ([2]; fed (high-fat breakfast), N=13, linear mixed-effects model, read-out: AUClast, GLSM) was 18700 ng·h/mL. It also gave a Cmax ([2]; fed (high-fat breakfast), N=13, linear mixed-effects model, read-out: Cmax, GLSM) of 2690 ng/mL, an AUC(0-inf) ([2]; fed (high-fat breakfast), N=13, read-out: AUCinf, geometric mean (Geo CV%)) of 18800 ng·h/mL and an AUC(0-inf) ([2]; fed (high-fat breakfast), N=13, read-out: AUCinf, mean (SD)) of 19600 ng·h/mL. For the same compound, the AUC(0-t) ([2]; fed (high-fat breakfast), N=13, read-out: AUClast, geometric mean (Geo CV%)) was 18600 ng·h/mL, the AUC(0-t) ([2]; fed (high-fat breakfast), N=13, read-out: AUClast, mean (SD)) was 19400 ng·h/mL and the Cmax ([2]; fed (high-fat breakfast), N=13, read-out: Cmax, geometric mean (Geo CV%)) was 2660 ng/mL. The Cmax ([2]; fed (high-fat breakfast), N=13, read-out: Cmax, mean (SD)) was 2780 ng/mL, the “delay of oral absorption with food” value [2] was “about 2 hours” and the AUC(0-inf) ([3]; 500 mg, fasted without pantoprazole, N=12, linear mixed-effects model, read-out: AUCinf, GLSM) was 13300 ng·h/mL. For the same compound, the AUC(0-t) ([3]; 500 mg, fasted without pantoprazole, N=12, linear mixed-effects model, read-out: AUClast, GLSM) was 12800 ng·h/mL, the Cmax ([3]; 500 mg, fasted without pantoprazole, N=12, linear mixed-effects model, read-out: Cmax, GLSM) was 1530 ng/mL and the AUC(0-inf) ([3]; 500 mg, fasted without pantoprazole, read-out: AUCinf, geometric mean (Geo CV%)) was 13300 ng·h/mL. The AUC(0-inf) ([3]; 500 mg, fasted without pantoprazole, read-out: AUCinf, mean (SD)) was 13800 ng·h/mL, the AUC(0-t) ([3]; 500 mg, fasted without pantoprazole, read-out: AUClast, geometric mean (Geo CV%)) was 12800 ng·h/mL and the AUC(0-t) ([3]; 500 mg, fasted without pantoprazole, read-out: AUClast, mean (SD)) was 13300 ng·h/mL. The Cmax ([3]; 500 mg, fasted without pantoprazole, read-out: Cmax, geometric mean (Geo CV%)) was 1530 ng/mL, the Cmax ([3]; 500 mg, fasted without pantoprazole, read-out: Cmax, mean (SD)) was 1600 ng/mL and the AUC(0-inf) ([3]; fasted with pantoprazole 40 mg QD, N=12, linear mixed-effects model, read-out: AUCinf, GLSM) was 13800 ng·h/mL. The AUC(0-t) ([3]; fasted with pantoprazole 40 mg QD, N=12, linear mixed-effects model, read-out: AUClast, GLSM) was 13400 ng·h/mL, the Cmax ([3]; fasted with pantoprazole 40 mg QD, N=12, linear mixed-effects model, read-out: Cmax, GLSM) was 1560 ng/mL and the AUC(0-inf) ([3]; fasted with pantoprazole 40 mg QD, read-out: AUCinf, geometric mean (Geo CV%)) was 13300 ng·h/mL. The AUC(0-inf) ([3]; fasted with pantoprazole 40 mg QD, read-out: AUCinf, mean (SD)) was 13700 ng·h/mL, the AUC(0-t) ([3]; fasted with pantoprazole 40 mg QD, read-out: AUClast, geometric mean (Geo CV%)) was 13000 ng·h/mL and the AUC(0-t) ([3]; fasted with pantoprazole 40 mg QD, read-out: AUClast, mean (SD)) was 13400 ng·h/mL. The Cmax ([3]; fasted with pantoprazole 40 mg QD, read-out: Cmax, geometric mean (Geo CV%)) was 1540 ng/mL, the Cmax ([3]; fasted with pantoprazole 40 mg QD, read-out: Cmax, mean (SD)) was 1580 ng/mL and the “effect of pantoprazole on RBN-3143 exposure/PK” value ([3]; pantoprazole 40 mg QD pre-treatment, RBN-3143 500 mg) was “did not impact; also recorded: no effect; also recorded: did not alter; also recorded: unaffected”. The metabolizing enzyme [4] was “predominantly metabolized by cytochrome P4503A4 (CYP3A4)”.
